Assay in all cases: NCI anticancer screen, dose series, 48 h
In assay [1] the test system is CCRF-CEM.
In assay [2] the test system is RXF 393.
In assay [3] the test system is HCT-15.
Assay [4] deals with PC-3.
The subject of assay [5] is TK-10.
Assay [6] deals with IGROV-1.
In assay [7] the test system is K562.
The subject of assay [8] is SF-539.
For assay [9], the system named is ACHN.
The test system of assay [10] is OVCAR-8.
Assay [11] concerns SNB-75.
In assay [12] the test system is NCI-H522.
Assay [13] concerns SW-620.
The test system of assay [14] is HT-29.
Assay [15] concerns UACC-257.
For assay [16], the system named is SNB-19.
Assay [17] concerns NCI-H226.
Assay [18] has as its system OVCAR-4.
Assay [19] has as its system OVCAR-3.
Assay [20] deals with BT-549.

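48-hour exposure; five concentrations; linearly interpolated endpoints. GI50 marks 50% less growth.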 Calls of active or inactive are those of the source. No stated cut-off is given here; in the data, active = GI50 up to about 1.1 µM and inactive = higher.

For the compound `N#Cc1c(/C=C/c2ccccc2)c2c([nH]c1=S)CCCCC2`, the GI50 in assay [1] was > 100 µM (inactive); in assay [2], > 100 µM (inactive); in [3], greater than 100 µM; in assay [4], > 100 µM (inactive); in assay [5] it was > 100 µM (inactive); in [6], > 100 µM (inactive). Also, the GI50 in assay [7], in [8], in [9], in [10], in assay [11] and in [12] was > 100 µM (inactive) throughout. In addition, the GI50 in assay [13], in [14], in [15], in assay [16], in assay [17] and in assay [18] was > 100 µM (inactive) each time. Moreover, in assay [19], the GI50 is > 100 µM (inactive).
In the case of `O=C1NN(Cc2ccccc2)C(=O)N2CCC[C@@H]12`, the GI50 was > 100 µM (inactive) in [1]; > 100 µM (inactive) in [2]; greater than 100 µM in [3]; > 100 µM (inactive) in assay [4]; > 100 µM (inactive) in assay [5]; > 100 µM (inactive) in assay [6]. In addition, the GI50 in assay [8] was > 100 µM (inactive); in assay [9], > 100 µM (inactive); in [10], > 100 µM (inactive); in assay [11], 0.0179 µM (active); in assay [13] it was > 100 µM (inactive); in [14] it was > 100 µM (inactive). The GI50 in [15] was > 100 µM (inactive); in [16], > 100 µM (inactive); in assay [17] it was 0.0505 µM (active); in [18], > 100 µM (inactive); in assay [19], > 100 µM (inactive).
With `CCCCS(=O)(=O)CCC(N)P(=O)(O)O` (stereo not given), the GI50 in assay [1] is > 100 µM (inactive); in assay [3], greater than 100 µM; in assay [4], > 100 µM (inactive); in assay [20], > 100 µM (inactive); in assay [5], > 100 µM (inactive); in assay [6] it was > 100 µM (inactive). The GI50 in assay [7], in [9], in assay [10], in assay [11], in assay [12] and in assay [13] was > 100 µM (inactive) in each case. For the same compound, the GI50 in assay [14], in assay [15], in [16], in [17], in assay [18] and in [19] was > 100 µM (inactive) each time.
Regarding `O=C(NC(Cc1ccccc1)P(=O)(O)c1ccccc1)OCc1ccccc1` (stereo not given), the GI50 was > 100 µM (inactive) in assay [1]; greater than 100 µM in [3]; > 100 µM (inactive) in [4]; > 100 µM (inactive) in assay [20]; > 100 µM (inactive) in assay [5]; > 100 µM (inactive) in assay [6]. Also, the GI50 in assay [7], in assay [9], in assay [10], in [11], in assay [12] and in assay [13] was > 100 µM (inactive) in each case. Further, the GI50 in assay [14], in assay [15], in assay [16], in assay [17], in assay [18] and in assay [19] was > 100 µM (inactive) each time.
For the compound `O=C(/C=C/c1cccc([N+](=O)[O-])c1)N1CCN(CCOC(c2ccccc2)c2ccccc2)CC1`, the GI50 is 28.4 µM (inactive) in assay [1]; 34.4 µM (inactive) in assay [2]; 31.1 µM in [3]; 27.4 µM (inactive) in assay [20]; 22.7 µM (inactive) in assay [5]; 42.6 µM (inactive) in assay [6]. The GI50 was 19.4 µM (inactive) in assay [7]; 34.5 µM (inactive) in [9]; 30.6 µM (inactive) in assay [10]; 54.2 µM (inactive) in assay [11]; 24.5 µM (inactive) in assay [12]; 38.9 µM (inactive) in [13]. The GI50 was 19.2 µM (inactive) in [14]; 32.4 µM (inactive) in [15]; > 100 µM (inactive) in assay [16]; 29.9 µM (inactive) in [18]; 66.1 µM (inactive) in assay [19].
Turning to `CCOC(=O)c1cnc2oc3ccc(O)cc3c2c1C`, the GI50 was 32.7 µM (inactive) in [1]; > 100 µM (inactive) in assay [2]; greater than 100 µM in assay [3]; > 100 µM (inactive) in assay [4]; 57.4 µM (inactive) in assay [5]; > 100 µM (inactive) in assay [7]. For the same compound, the GI50 in assay [8] was 39.8 µM (inactive); in [9] it was > 100 µM (inactive); in assay [10], 61.8 µM (inactive); in assay [13], > 100 µM (inactive); in assay [14], > 100 µM (inactive); in [15] it was > 100 µM (inactive). Further, the GI50 in assay [16] is > 100 µM (inactive); in assay [17], > 100 µM (inactive); in [18], 33.7 µM (inactive); in assay [19] it was 33.9 µM (inactive).
`CCn1c2ccccc2n2c(=O)c3c(c(C#N)c12)CCCC3`: the GI50 in assay [1] was > 100 µM (inactive); in assay [3], greater than 100 µM; in [4] it was > 100 µM (inactive); in assay [20], > 100 µM (inactive); in assay [5], > 100 µM (inactive); in assay [6] it was > 100 µM (inactive). In addition, the GI50 in assay [7], in assay [8], in [9], in [10], in assay [12] and in [13] was > 100 µM (inactive) each time. In addition, the GI50 in assay [14], in assay [15], in [16], in [17], in [18] and in assay [19] was > 100 µM (inactive) in each case.
With `CCOC(=O)N1c2c(c3ccccc3n2C(=O)OCC)C(=O)C(OC)N1C(=O)OCC` (stereo not given), the GI50 in assay [1] is 19.5 µM (inactive); in assay [3], 27.7 µM; in assay [4] it was 21.6 µM (inactive); in assay [20] it was 60.7 µM (inactive); in assay [5], 50.5 µM (inactive); in [6] it was 26.5 µM (inactive). Further, the GI50 in assay [7] is 21.1 µM (inactive); in assay [8], 24.6 µM (inactive); in assay [9], 25.6 µM (inactive); in [10], 21.7 µM (inactive); in [12], 13.3 µM (inactive); in [13], 31.7 µM (inactive). The GI50 in [14] was 30.5 µM (inactive); in assay [15] it was 29.4 µM (inactive); in [16], 41.4 µM (inactive); in [17], 36.1 µM (inactive); in [18], 41.9 µM (inactive); in [19] it was 30.2 µM (inactive).
Consider `COc1ccc(CC2C3=C(CCCC3)CCN2C)cc1` (stereo not given), for which the GI50 was > 100 µM (inactive) in assay [1]; > 100 µM (inactive) in assay [2]; greater than 100 µM in [3]; > 100 µM (inactive) in assay [4]; > 100 µM (inactive) in assay [5]; > 100 µM (inactive) in [6]. Also, the GI50 was 39 µM (inactive) in [7]; > 100 µM (inactive) in [8]; > 100 µM (inactive) in [9]; > 100 µM (inactive) in assay [10]; 55.2 µM (inactive) in [11]; > 100 µM (inactive) in assay [13]. Further, the GI50 in [14] is 65.8 µM (inactive); in assay [15], > 100 µM (inactive); in assay [16] it was > 100 µM (inactive); in [17], > 100 µM (inactive); in assay [18], > 100 µM (inactive); in [19], > 100 µM (inactive).
Take `O=C1CNc2cc(N3CCN(c4cccc(C(F)(F)F)c4)CC3)ccc2N1`: the GI50 was 38.4 µM (inactive) in assay [1]; 38.9 µM in assay [3]; 44.4 µM (inactive) in [4]; 42.8 µM (inactive) in [20]; 69.2 µM (inactive) in [5]; 30.8 µM (inactive) in assay [6]. For the same compound, the GI50 in assay [8] is 57.3 µM (inactive); in assay [9], 50.6 µM (inactive); in [10] it was 83.2 µM (inactive); in assay [11], 84.7 µM (inactive); in assay [12], 13.9 µM (inactive); in assay [13], 51.2 µM (inactive). The GI50 in assay [14] is 70.6 µM (inactive); in assay [15], 37 µM (inactive); in [16] it was > 100 µM (inactive); in assay [17] it was 19.6 µM (inactive); in [18], 21.4 µM (inactive); in [19], 27.5 µM (inactive).
As for `Sc1nnc(Cc2ccc(Cl)cc2)[nH]1`, the GI50 in [1] was 63.1 µM (inactive); in [3], 59.6 µM; in [4] it was 49.1 µM (inactive); in assay [20] it was > 100 µM (inactive); in assay [5], 66.2 µM (inactive); in assay [6] it was 44.5 µM (inactive). In addition, the GI50 in assay [7] is 48.8 µM (inactive); in assay [8], 66.4 µM (inactive); in [9] it was 45.3 µM (inactive); in assay [10] it was 46.6 µM (inactive); in [11], 33.2 µM (inactive); in [13], 85.5 µM (inactive). For the same compound, the GI50 is > 100 µM (inactive) in assay [14]; 60.5 µM (inactive) in assay [15]; 71 µM (inactive) in assay [16]; 65.5 µM (inactive) in assay [17]; 71.9 µM (inactive) in assay [18]; > 100 µM (inactive) in [19].
